Experimental findings from US9133163B2, “Dihydropyrazole GPR40 modulators” (Bristol-Myers Squibb Company, priority 2012, dated 2015) are described below.

The target of assay [1] is T1, hGPR40 (Homo sapiens, UniProt O14842). Briefly: FDSS-based intracellular calcium assay. It is filed as cell-based. More on the design: 3xFLAG; expressed in transfected cells. Conditions: intracellular Ca2+ response, cells expressing GPR40. On the procedure:
FDSS-Based Intracellular Calcium Assay
Compounds are dissolved in DMSO and diluted to desired concentrations with assay buffer and added to the cells as 3× solution (20 μL per well). Run fluorescence/luminescence reader FDSS (Hamamatsu) to read intracellular Ca^2+ response.

In assay [2] the target is T1, hGPR40. Briefly: GPR40 IP-One HTRF assay in HEK293/GPR40 inducible cell lines. More on the design: expressed in transfected cells. The following applies: HEK293 cells with tetracycline-inducible human GPR40; read-out: hGPR40 IP1 EC50. It is filed as cell-based. On the procedure:
GPR40 IP-One HTRF Assays in HEK293/GPR40 Inducible Cell Lines
Human, mouse and rat GPR40-mediated intracellular IP-One HTRF assays were established using human embryonic kidney HEK293 cells stably transfected with a tetracycline-inducible human, mouse or rat GPR40 receptor. Cells were routinely cultured in growth medium containing DMEM (Gibco Cat. #12430-047), 10% qualified FBS (Sigma, Cat. #F2442), 200 μg/ml hygromycin (Invitrogen, Cat. #16087-010) and 1.5 μg/ml blasticidin (Invitrogen, Cat. #R210-01). About 12-15 million cells were passed into a T175 tissue culture flask (BD FALCON® 353112) with growth medium and incubated for 16-18 hours (overnight) at 370 C with 5% CO2. The next day, assay medium was exchanged with growth medium containing 1000 ng/mL of tetracycline (Fluka Analytical, Cat. #87128) to induce GPR40 expression for 18-24 hours at […] incubator with 5% CO2. After induction, the cells were washed with PBS (Gibco, Cat. #14190-036) and detached with Cell Stripper (CELLGRO®, Cat. #25-056-CL). 10-20 mL growth medium were added to the flask and cells were collected in 50 mL tubes (FALCON®, Cat. #352098) and spun at 1000 RPM for 5 minutes. Culture medium was aspirated and the cells were resuspended in 10 mL of 1× IP-One Stimulation Buffer from the Cisbio IP-One kit (Cisbio, Cat. #62IPAPEJ). The cells were diluted to 1.4×10^6 cells/mL in Stimulation Buffer.
Test compounds were 3-fold, 11-point serially diluted in DMSO in a REMP assay plate (Matrix Cat. #4307) by BIOCEL® (Agilent). The compounds were transferred into an Echo plate (LABCYTE, Cat. #LP-0200) and […] of diluted compounds were transferred to an assay plate (proxi-plate from Perkin Elmer, Cat. #6008289) by Echo acoustic nano dispenser (LABCYTE, model ECHO550). 14 μL of the diluted cells were then added to the assay plate by Thermo (SN 836 330) CombiDrop and incubated at room temperature for 45 minutes. Then 3 μL of IP1 coupled to dye D2 from the Cisbio IP-One kit were added to the assay plate followed by 3 μL of Lumi4TM-Tb cryptate K from the kit. The plate was further incubated at room for 1 hour before reading on the Envision (Perkin Elmer Model2101) with an HTRF protocol. Activation data for the test compound over a range of concentrations was plotted as percentage activation of the test compound (100%=maximum response). After correcting for background [(sample read-mean of low control)/(mean of high control−mean of low control)](low control is DMSO without any compound), EC50 values were determined. The EC50 is defined as the concentration of test compound which produces 50% of the maximal response and was quantified using the 4 parameter logistic equation to fit the data.

T1 sequence (O14842 whole entry): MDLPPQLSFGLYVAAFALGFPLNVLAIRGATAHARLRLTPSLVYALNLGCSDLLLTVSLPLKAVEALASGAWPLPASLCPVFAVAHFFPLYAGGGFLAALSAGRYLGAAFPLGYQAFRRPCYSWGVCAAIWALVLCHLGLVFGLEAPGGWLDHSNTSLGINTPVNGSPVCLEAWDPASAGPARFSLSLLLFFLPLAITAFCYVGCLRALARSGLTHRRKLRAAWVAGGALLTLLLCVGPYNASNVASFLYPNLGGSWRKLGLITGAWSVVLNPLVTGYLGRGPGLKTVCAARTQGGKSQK

Take `CC(C)Oc1ccc(F)c(N2CCC(Oc3ccc(N4N=C(C(F)(F)F)[C@@H](C)[C@@H]4CC(=O)O)cc3)C(C)C2)c1` (stereo partly drawn) [Example 12, 2-((4S,5S)-1-(4-((1-(2-Fluoro-5-isopropoxyphenyl)-3-methylpiperidin-4-yl)oxy)phenyl)-4-methyl-3-(trifluoromethyl)-4,5-dihydro-1H-pyrazol-5-yl)acetic acid]: the 50% effective concentration (EC50) at hGPR40 [1] was 311 nM; on hGPR40 [2], 253 nM.

Turning to `COc1ccc(F)c(N2CCC(Oc3ccc(N4N=C(C(F)(F)F)[C@@H](C)[C@@H]4CC(=O)O)cc3)C(F)C2)c1` (single isomer, unassigned) [Example 57 (Isomer 4)], the EC50 was found to be 66 nM on hGPR40 [1] and 11 nM at hGPR40 [2].

For the compound `CCOc1cc(N2CC[C@@H](Oc3ccc(N4N=C(C(F)(F)F)[C@@H](C)[C@@H]4CC(=O)O)cc3)[C@H](C)C2)c(Cl)cn1` [Example 83, 2-((4S,5S)-1-(4-(((3R,4R)-1-(5-Chloro-2-ethoxypyridin-4-yl)-3-methylpiperidin-4-yl)oxy)phenyl)-4-methyl-3-(trifluoromethyl)-4,5-dihydro-1H-pyrazol-5-yl)acetic acid], the EC50 at hGPR40 [1] was found to be 224 nM.

On to `Cc1cccc(C)c1N1CCC(Oc2ccc(N3N=C(C(F)(F)F)[C@@H](C)[C@@H]3CC(=O)O)cc2)CC1` [Example 44, 2-((4S,5S)-1-(4-((1-(2,6-Dimethylphenyl)piperidin-4-yl)oxy)phenyl)-4-methyl-3-(trifluoromethyl)-4,5-dihydro-1H-pyrazol-5-yl)acetic acid], for which the concentration for a half-maximal effect (EC50) on hGPR40 [1] stood at 1340 nM.

Turning to `Cc1ccc(C)c(N2CCC(Oc3ccc(N4N=C(C(F)(F)F)[C@@H](C)[C@@H]4CC(=O)O)cc3)CC2)c1` [Example 43, 2-((4S,5S)-1-(4-((1-(2,5-Dimethylphenyl)piperidin-4-yl)oxy)phenyl)-4-methyl-3-(trifluoromethyl)-4,5-dihydro-1H-pyrazol-5-yl)acetic acid], the EC50 at hGPR40 [1] came out at 1070 nM.

Consider `COc1ccnc(N2CCC(Oc3ccc(N4N=C(C(F)(F)F)[C@@H](C)[C@@H]4CC(=O)O)cc3)CC2)c1` [Example 45, 2-((4S,5S)-1-(4-((1-(4-Methoxypyridin-2-yl)piperidin-4-yl)oxy)phenyl)-4-methyl-3-(trifluoromethyl)-4,5-dihydro-1H-pyrazol-5-yl)acetic acid], for which the EC50 on hGPR40 [1] worked out at 1520 nM.

On to `CC(C)Oc1ccc(F)c(N2CCC(Oc3ccc(N4N=C(C(F)(F)F)[C@@H](C)[C@@H]4CC(=O)O)cc3)CC2)c1` [Example 9, 2-((4S,5S)-1-(4-((1-(2-Fluoro-5-isopropoxyphenyl)piperidin-4-yl)oxy)phenyl)-4-methyl-3-(trifluoromethyl)-4,5-dihydro-1H-pyrazol-5-yl)acetic acid], for which the 50% effective concentration (EC50) at hGPR40 [1] stood at 374 nM.

As for `COc1cc(N2CCC(Oc3ccc(N4N=C(C(F)(F)F)[C@@H](C)[C@@H]4CC(=O)O)cc3)CC2)ccn1` [Example 47, 2-((4S,5S)-1-(4-((1-(2-Methoxypyridin-4-yl)piperidin-4-yl)oxy)phenyl)-4-methyl-3-(trifluoromethyl)-4,5-dihydro-1H-pyrazol-5-yl)acetic acid], on hGPR40 [1], the EC50 stood at 1910 nM.

Take `CCOc1ccc(F)c(N2CCC(Oc3ccc(N4N=C(C(F)(F)F)[C@@H](C)[C@@H]4CC(=O)O)cc3)CC2)c1` [Example 32, 2-((4S,5S)-1-(4-((1-(5-Ethoxy-2-fluorophenyl)piperidin-4-yl)oxy)phenyl)-4-methyl-3-(trifluoromethyl)-4,5-dihydro-1H-pyrazol-5-yl)acetic acid]: the EC50 at hGPR40 [1] was 217 nM.

On to `CCOc1cc(N2CC[C@@H](Oc3ccc(N4N=C(C(F)(F)F)[C@@H](C)[C@@H]4CC(=O)O)cc3)[C@H](C)C2)c(F)cn1` [Example 85, 2-((4S,5S)-1-(4-(((3R,4R)-1-(2-Ethoxy-5-fluoropyridin-4-yl)-3-methylpiperidin-4-yl)oxy)phenyl)-4-methyl-3-(trifluoromethyl)-4,5-dihydro-1H-pyrazol-5-yl)acetic acid], for which the concentration for a half-maximal effect (EC50) at hGPR40 [1] is 277 nM.

For the compound `C[C@@H]1C(C(F)(F)F)=NN(c2ccc(OC3CCN(c4cc(Cl)ccc4Cl)CC3)cc2)[C@H]1CC(=O)O` [Example 35, 2-((4S,5S)-1-(4-((1-(2,5-Dichlorophenyl)piperidin-4-yl)oxy)phenyl)-4-methyl-3-(trifluoromethyl)-4,5-dihydro-1H-pyrazol-5-yl)acetic acid], on hGPR40 [1], the EC50 is 254 nM.

With `CC(C)c1ccc(F)c(N2CCC(Oc3ccc(N4N=C(C(F)(F)F)[C@@H](C)[C@@H]4CC(=O)O)cc3)CC2)c1` [Example 66, 2-((4S,5S)-1-(4-((1-(2-Fluoro-5-isopropylphenyl)piperidin-4-yl)oxy)phenyl)-4-methyl-3-(trifluoromethyl)-4,5-dihydro-1H-pyrazol-5-yl)acetic acid], the EC50 on hGPR40 [1] was 600 nM.

As to `CCC1C(C(F)(F)F)=NN(c2ccc(OC3CCN(c4cc(OC)ncc4Cl)CC3C)cc2)C1CC(=O)O` (single isomer, unassigned) [Example 86, Isomer 3, 2-(1-(4-((1-(5-Chloro-2-methoxypyridin-4-yl)-3-methylpiperidin-4-yl)oxy)phenyl)-4-ethyl-3-(trifluoromethyl)-4,5-dihydro-1H-pyrazol-5-yl)acetic acid], the EC50 at hGPR40 [1] stood at 1930 nM.

Turning to `CCOc1ccc(F)c(N2CCC(Oc3ccc(N4N=C(c5ccc(F)cc5)[C@@H](C)[C@@H]4CC(=O)O)cc3)CC2)c1` [Example 95, 2-((4S,5S)-1-(4-((1-(5-Ethoxy-2-fluorophenyl)piperidin-4-yl)oxy)phenyl)-3-(4-fluorophenyl)-4-methyl-4,5-dihydro-1H-pyrazol-5-yl)acetic acid], the 50% effective concentration (EC50) on hGPR40 [1] worked out at 108 nM.

As to `CCOc1ccc(F)c(N2CCC(Oc3ccc(N4N=C(c5ccc(C#N)cc5F)[C@@H](C)[C@@H]4CC(=O)O)cc3)CC2)c1` [Example 94, 2-((4S,5S)-3-(4-Cyano-2-fluorophenyl)-1-(4-((1-(5-ethoxy-2-fluorophenyl)piperidin-4-yl)oxy)phenyl)-4-methyl-4,5-dihydro-1H-pyrazol-5-yl)acetic acid], at hGPR40 [1], the half-maximal effective concentration (EC50) is 59 nM.

Consider `CCOc1ccc(F)c(N2CC[C@H](Oc3ccc(N4N=C(C(F)(F)F)[C@@H](C)[C@@H]4CC(=O)O)cc3)[C@@H](C)C2)c1` [Example 30, 2-((4S,5S)-1-(4-(((3S,4S)-1-(5-Ethoxy-2-fluorophenyl)-3-methylpiperidin-4-yl)oxy)phenyl)-4-methyl-3-(trifluoromethyl)-4,5-dihydro-1H-pyrazol-5-yl)acetic acid], for which the EC50 on hGPR40 [1] turned out to be 1200 nM.

Consider `C[C@@H]1C(C(F)(F)F)=NN(c2ccc(OC3CCN(c4ncccc4F)CC3)cc2)[C@H]1CC(=O)O` [Example 41, 2-((4S,5S)-1-(4-((1-(3-Fluoropyridin-2-yl)piperidin-4-yl)oxy)phenyl)-4-methyl-3-(trifluoromethyl)-4,5-dihydro-1H-pyrazol-5-yl)acetic acid], for which the concentration for a half-maximal effect (EC50) on hGPR40 [1] is 628 nM.

In the case of `COc1ccc(C#N)c(N2CCC(Oc3ccc(N4N=C(C(F)(F)F)[C@@H](C)[C@@H]4CC(=O)O)cc3)CC2)c1` [Example 21, 2-((4S,5S)-1-(4-((1-(2-Cyano-5-methoxyphenyl)piperidin-4-yl)oxy)phenyl)-4-methyl-3-(trifluoromethyl)-4,5-dihydro-1H-pyrazol-5-yl)acetic acid], at hGPR40 [1], the EC50 is 680 nM.

Regarding `CCOc1cc(F)c(F)c(N2CCC(Oc3ccc(N4N=C(C(F)(F)F)[C@@H](C)[C@@H]4CC(=O)O)cc3)C(C)C2)c1` (single isomer, unassigned) [Example 10 (Isomer 2)], on hGPR40 [1], the 50% effective concentration (EC50) was 315 nM.

Take `CCOc1ccc(F)c(N2CCC(Oc3ccc(N4N=C(C(F)(F)F)[C@@H](C)[C@@H]4CC(=O)O)cc3)C(C(C)C)C2)c1` (single isomer, unassigned) [Example 26 (Isomer 1)]: the EC50 at hGPR40 [1] came out at 1900 nM.
